# Assay results taken from patent US20260139254A1, “INTERFERING RNA FOR INHIBITING TOP1 GENE EXPRESSION AND USE THEREOF” (JENKEM TECHNOLOGY CO., LTD. (BEIJING), priority 2022, published 2026).
# pIC50: −log10 of the molar value.
# Experiments:
# Format in all cases: cell-based, human
# TOP1 mRNA [1] = test: Inhibitory effect of siTOP1 on TOP1 mRNA in A375 cells (Lipofectamine RNAiMAX transfection, Q-PCR); settings: A375, siRNA 50 nM, 48 h after transfection
# Description: • 1) On the day before transfection, A375 melanoma cells were seeded into a 24-well plate at 6×10^4 to 8×10^4 cells/well, the culture medium being 500 μL of DMEM containing 10% FBS and 1% Penicillin-Streptomycin, and the plate was placed in an incubator with 5% CO2 at 37° C. for 24 h to allow the cells to adhere to the wall. Three replicate wells were made for each group. • 2) On the day of transfection, the culture medium was changed to 450 μL of DMEM culture medium without antibiotics (containing 10% FBS). • 3) The siRNAs were diluted with 25 μL of Opti-MEM culture medium; the siNC (the siNC (reference: O Sordet et al., 2008) having the target sequence of 5′-TTCTCCGAACGTGTCACGT-3′ (SEQ ID NO: 46)) at the same concentration was the negative control group; Lipofectamine™ RNAiMAX (Lipo) transfection reagent was diluted with another 25 μL of Opti-MEM culture medium and left to stand at room temperature for 5 min; and the two dilutions were uniformly mixed and left to stand at room temperature for 5 min. • 4) 50 μL of the mixed solution described above was added to each well to obtain a final transfection volume of 500 μL. and the working concentration of the siRNA was 50 nM. • 5) After the transfection, the cells were cultured for 48 h and then collected.
# • 1) RNA was extracted using an Eastep™ Super total RNA extraction kit; 300 μL of RNA lysis solution and 300 μL of RNA diluent were added; and the mixture was uniformly mixed and then transferred to a 1.5 mL centrifuge tube. • 2) The mixture was centrifuged at 14000 g for 5 min, and the supernatant was carefully pipetted into a new 1.5 mL centrifuge tube. • 3) A 0.5-fold volume of absolute ethanol was added, and the mixture was uniformly mixed by allowing the tube to be repeatedly upside down 15-20 times. Subsequently, the mixture was transferred to a centrifuge column and centrifuged at 12000 g for 1 min. The filtrate was discarded. • 4) 600 μL of RNA wash buffer was added, and the mixture was centrifuged at 12000 g for 1 min. The filtrate was discarded. • 5) 50 μL of DNase I incubation buffer was added, followed by DNA digestion at room temperature for 15 min. • 6) 600 μL of RNA wash buffer was added, the mixture was centrifuged at 12000 g for 1 min, and the filtrate was discarded. This procedure was repeated once. • 7) The mixture was centrifuged at 14000 g for 2 min to remove the residual RNA wash buffer, and then the centrifuge column was placed in a collection tube. • 8) An appropriate amount of RNase-free H2O was added, and the mixture was left to stand at room temperature for 12 min and centrifuged at 14000 g for 1 min. The collected RNA was preserved at −70° C. for later use.
# • 1) The mass and concentration of the RNA were detected using NanoDrop™, and an RNA template was prepared as follows: RNase-free H2O was added to 1 μg of RNA to a volume of 10 μL; the mixture was placed at 70° C. for 5 min and then placed in an ice bath for 5 min for later use. • 2) A reaction system was established according to Table 2:
# • 3) The reaction system described above was uniformly mixed and centrifuged to collect the liquid at the bottom of a tube, and the mixture was subjected to the procedures of 25° C. for 5 min, 42° C. for 60 min, and 72° C. for 15 min, thereby giving the cDNA product. • 4) A Q-PCR system was prepared according to Table 3, and the level of TOP1 gene was detected:
# GAPDH was used as an endogenous reference, and the sequences of the primers used for detection are as follows: […]
# A375 melanoma cells = test: Inhibition of A375 cell proliferation by siTOP1 (CCK-8); settings: A375, siRNA 50 nM, 72 h
# Description: • 1) On the day before transfection, A375 melanoma cells were seeded into a 96-well plate at 2500-3000 cells/well, the culture medium being a total volume of 200 μL of DMEM culture medium containing 7.5% FBS and 1% Penicillin-Streptomycin, and the plate was placed in an incubator with 5% CO2 at 37° C. for 24 h to allow the cells to adhere to the wall. 5 replicate wells were made for each group. • 2) On the day of transfection, the culture medium was changed to 90 μL of reduced serum culture medium without antibiotics and containing 7.5% FBS. • 3) The siRNAs were diluted with an appropriate amount of Opti-MEM culture medium; Lipofectamine™ RNAiMAX (Lipo) transfection reagent was diluted with another appropriate amount of Opti-MEM culture medium and left to stand at room temperature for 5 min; and the two dilutions were uniformly mixed and left to stand at room temperature for 5 min. • 4) 10 μL of the mixed solution described above was added to each well to obtain a final transfection volume of 100 μL, and the working concentration of the siRNA was 50 nM. • 5) The cells were cultured in the incubator with 5% CO2 at 37° C. for 72 h.
# After 72 h of transfection, 10 μL of CCK-8 solution was added to each well, and the cells were cultured in the incubator with 5% CO2 at 37° C. for another 4 h. The absorbance value at 450 nm was measured using a microplate reader. Cell viability was calculated according to the following formula: […]
# TOP1 mRNA [2] = test: Dose-dependence of siTOP1-1604 on TOP1 mRNA in HCT116 cells (qPCR); settings: for Relative expression level of TOP1, mean value: 24 h, siNC = 100.00
# Description: A transfection system was prepared as follows on the day of transfection: siTOP1-1604 was diluted with an appropriate amount of Opti-MEM culture medium; Lipofectamine™ RNAiMAX (Lipo) transfection reagent was diluted with another appropriate amount of Opti-MEM culture medium and left to stand at room temperature for 5 min; and the two dilutions were uniformly mixed, left to stand at room temperature for 5 min, and then added to 24-well cell culture plates at 50 μL/well. PC-3 human prostate cancer cells were added to one of the 24-well cell culture plates at 4×10^5 cells/well, the culture medium being 450 μL of F12K containing 10% FBS; HCT116 human colon cancer cells were added to the other of the 24-well cell culture plates at 3.5×10^5 cells/well, the culture medium being 450 μL of IMDM containing 10% FBS. The cells were uniformly mixed with the siRNA. The final transfection volume was 500 μL, and the working concentrations of the siRNA were 10, 1.67, 0.27, 0.046, 0.0077, 0.0013, and 0.00021 nM. The control groups were Blank (Opti-MEM at the equal volume), Lipofectamine™ RNAiMAX (Lipo) transfection reagent, as well as 10 nM of siNC.
# After 24 h of transfection, the cells were collected. The total cellular RNA was extracted according to the method in Example 2, and the level of TOP1 mRNA was detected. […] Nonlinear fitting was performed on the qPCR results using Graphpad software and IC50 of siTOP1 was calculated.
substance,measurement,setting,value
"siTOP1-1604: siRNA targeting TOP1; target SEQ ID NO: 9, sense strand SEQ ID NO: 24, antisense strand SEQ ID NO: 39 (sense GUGUGGACAAGAUCCGGAAUU; antisense UUCCGGAUCUUGUCCACACUU; described as unmodified parent siRNA, further chemistry not given here)",Inhibition of TOP1 expression,TOP1 mRNA [1],94.0%
same,"Relative expression level of gene, mean value","TOP1 mRNA [1]; Blank = 100.00, GAPDH reference",5.97
same,"Cell viability (%), mean value",A375 melanoma cells,41.65%
same,Inhibition of A375 cell proliferation compared to Blank,A375 melanoma cells,about 58%
same,"Relative expression level of TOP1, mean value","TOP1 mRNA [2]; HCT116, 0.00021 nM",73.06
same,"Relative expression level of TOP1, mean value","TOP1 mRNA [2]; HCT116, 0.0013 nM",74.72
same,"Relative expression level of TOP1, mean value","TOP1 mRNA [2]; HCT116, 0.0077 nM",54.01
same,"Relative expression level of TOP1, mean value","TOP1 mRNA [2]; HCT116, 0.046 nM",17.23
same,"Relative expression level of TOP1, mean value","TOP1 mRNA [2]; HCT116, 0.27 nM",7.57
same,"Relative expression level of TOP1, mean value","TOP1 mRNA [2]; HCT116, 1.67 nM",7.91
same,"Relative expression level of TOP1, mean value","TOP1 mRNA [2]; HCT116, 10 nM",3.98
same,pIC50,"TOP1 mRNA [2]; HCT116, 24 h, relative to siNC, nonlinear fit of qPCR results",11.22
